Assay results taken from patent publication US20160074301A1, “ANTI-AGING SKIN CARE COMPOSITIONS AND REGIMENS” (The Procter & Gamble Company, priority 2014, published 2016).

How the values were obtained:
[1] = tested on: skin barrier formation; assay: Eigengene analysis, skin barrier formation, treated cultured human keratinocytes; format: cell-based
[2] = tested on: "Clear and Detox" module genes; assay: Eigengene of "Clear and Detox" co-expression module (FIG. 8); settings: cultured human keratinocytes
[3] = tested on: "Repair and Rebuild" associated genes; assay: Eigengene of "Repair and Rebuild" co-expression module (FIG. 9); settings: cultured human keratinocytes

| Substance | successful aging effect in skin barrier formation [1] | effect on "Clear and Detox" eigengene (FIG. 8) [2] | effect on "Repair and Rebuild" eigengene (FIG. 9) [3] |
| --- | --- | --- | --- |
| palmitoyl-lysine-threonine [Pal-KT] | Effects relating to successful aging were also identified | significantly up-regulates | – |
| palmitoyl-lysine-threonine-threonine-lysine-serine [Pal-KTTKS] | – | – | significantly up-regulate |
